Results taken from US7998988B2, “Biphenyl compounds useful in the treatment or prevention of cardiovascular disorders” (Bayer Schering Pharma Aktiengellschaft, priority 2005, dated 2011).

What was measured:
saphenous artery rings = experiment: Vasorelaxant effect in vitro (phenylephrine-contracted artery rings); assay type: cell-based; settings: rabbit saphenous artery rings, contraction induced by phenylephrine
Protocol: Rabbits are anesthetized and sacrificed by intravenous injection of thiopental sodium (about 50 mg/kg) and exsanguinated. The saphenous artery is removed and divided into rings 3 mm wide. The rings are mounted singly on in each case a pair of triangular hooks open at the end and made of 0.3 mm-thick special wire (Remanium®). Each ring is placed under an initial tension in 5 ml organ baths with Krebs-Henseleit solution which is at 37° C., is gassed with 95% 02/5% CO2 and has the following composition: NaCl 119 mM; KCl 4.8 mM; CaCl2×2H2O 1 mM; MgSO4×7 H2O 1.4 mM; KH2PO4 1.2 mM; NaHCO3 25 mM; glucose 10 mM; bovine serum albumin 0.001%. The force of contraction is detected with Statham UC2 cells, amplified and digitized via A/D converters (DAS-1802 HC, Keithley Instruments, Munich) and recorded in parallel on chart recorders. Contractions are induced by addition of phenylephrine.
After several (generally 4) control cycles, the substance to be investigated is added in each further run in increasing dosage, and the height of the contraction achieved under the influence of the test substance is compared with the height of the contraction reached in the last preceding run. The concentration necessary to reduce the contraction reached in the preceding control by 50% is calculated from this (IC50). The standard application volume is 5 μl. The proportion of DMSO in the bath solution corresponds to 0.1%.

[1] = molecular target: T1, heme-containing recombinant soluble guanylate cyclase (sGC) (Rattus norvegicus, UniProt P20595); experiment: Stimulation of recombinant soluble guanylate cyclase (sGC) in vitro, heme-containing; assay type: biochemical
T1 construct: made in house
T1 sequence (P20595 1-619): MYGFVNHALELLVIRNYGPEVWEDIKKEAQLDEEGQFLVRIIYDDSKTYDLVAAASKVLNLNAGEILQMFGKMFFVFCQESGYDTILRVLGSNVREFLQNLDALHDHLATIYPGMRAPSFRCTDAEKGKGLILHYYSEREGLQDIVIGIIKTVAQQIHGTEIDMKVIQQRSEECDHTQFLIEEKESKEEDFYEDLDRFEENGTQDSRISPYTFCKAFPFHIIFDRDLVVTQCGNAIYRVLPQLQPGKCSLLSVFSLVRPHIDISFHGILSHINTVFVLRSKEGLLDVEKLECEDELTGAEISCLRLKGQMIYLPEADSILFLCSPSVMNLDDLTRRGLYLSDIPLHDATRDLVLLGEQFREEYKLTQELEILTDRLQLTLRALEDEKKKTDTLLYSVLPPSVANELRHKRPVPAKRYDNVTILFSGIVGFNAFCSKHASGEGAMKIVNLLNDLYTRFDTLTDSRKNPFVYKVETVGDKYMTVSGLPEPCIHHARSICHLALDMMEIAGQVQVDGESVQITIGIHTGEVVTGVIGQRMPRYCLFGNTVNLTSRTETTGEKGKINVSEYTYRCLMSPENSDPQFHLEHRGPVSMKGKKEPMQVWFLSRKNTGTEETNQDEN
T1 sequence (P19686 1-690 partner): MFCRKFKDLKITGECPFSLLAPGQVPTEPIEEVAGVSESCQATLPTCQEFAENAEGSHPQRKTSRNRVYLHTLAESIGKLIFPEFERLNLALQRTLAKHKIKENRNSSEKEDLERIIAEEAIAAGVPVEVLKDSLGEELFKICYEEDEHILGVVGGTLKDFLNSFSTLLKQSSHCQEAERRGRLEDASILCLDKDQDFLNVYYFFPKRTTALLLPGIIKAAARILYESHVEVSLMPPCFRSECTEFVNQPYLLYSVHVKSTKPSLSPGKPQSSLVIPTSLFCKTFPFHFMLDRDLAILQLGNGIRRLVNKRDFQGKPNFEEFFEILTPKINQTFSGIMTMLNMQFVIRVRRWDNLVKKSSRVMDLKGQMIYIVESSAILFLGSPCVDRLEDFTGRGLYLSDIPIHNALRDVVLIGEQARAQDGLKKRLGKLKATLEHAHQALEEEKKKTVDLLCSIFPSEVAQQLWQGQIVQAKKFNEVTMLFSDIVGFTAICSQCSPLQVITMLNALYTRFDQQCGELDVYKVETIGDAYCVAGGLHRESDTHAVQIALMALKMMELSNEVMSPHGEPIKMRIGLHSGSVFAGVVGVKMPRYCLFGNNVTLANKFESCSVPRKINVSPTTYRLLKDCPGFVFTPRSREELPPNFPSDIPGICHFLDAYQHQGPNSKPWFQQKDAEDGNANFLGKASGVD
Excerpt: Hoenicka, E. M. Becker, H. Apeler, T. Sirichoke, H. Schroeder, R. Gerzer and J.-P. Stasch, “Purified soluble guanylyl cyclase expressed in a baculovirus/Sf9 system: Stimulation by YC-1, nitric oxide, and carbon oxide”, J. Mol. Med. 77 (1999), 14-23. The heme-free guanylate cyclase is obtained by adding Tween 20 to the sample buffer (0.5% in the final concentration).
(§1) The activation of sGC by a test substance is reported as n-fold stimulation of the basal activity.

[2] = molecular target: T2, heme-free recombinant soluble guanylate cyclase (sGC) (Rattus norvegicus, UniProt P20595); experiment: Stimulation of recombinant soluble guanylate cyclase (sGC) in vitro, heme-free; assay type: biochemical; settings: heme-free sGC (Tween 20)
T2 construct: made in house
T2 sequence (P20595 1-619): T1 sequence (P20595 1-619)
T2 sequence (P19686 1-690 partner): T1 sequence (P19686 1-690 partner)
Protocol: Investigations on the stimulation of recombinant soluble guanylate cyclase (sGC) by the compounds according to the invention with and without sodium nitroprusside, and with and without the heme-dependent sGC inhibitor 1H-1,2,4-oxadiazole-(4,3a)-quinoxalin-1-one (ODQ) are carried out by the method described in detail in the following reference: M. Hoenicka, E. M. Becker, H. Apeler, T. Sirichoke, H. Schroeder, R. Gerzer and J.-P. Stasch, “Purified soluble guanylyl cyclase expressed in a baculovirus/Sf9 system: Stimulation by YC-1, nitric oxide, and […]”, J. Mol. Med. 77 (1999), 14-23. The heme-free guanylate cyclase is obtained by adding Tween 20 to the sample buffer (0.5% in the final concentration).
as §1

IC50 (saphenous artery rings): 146 nM | Stimulation (n-fold) of sGC, +0.01 μM DEA/NO ([1]; 0.001 μM test substance): 10.6 n-fold | Stimulation (n-fold) of sGC, +0.01 μM DEA/NO ([1]; 0.01 μM test substance): 13.0 n-fold | Stimulation (n-fold) of sGC, +0.01 μM DEA/NO ([1]; 0.1 μM test substance): 25.5 n-fold | Stimulation (n-fold) of sGC, +0.01 μM DEA/NO ([1]; 1 μM test substance): 35.4 n-fold | Stimulation (n-fold) of sGC, +0.01 μM DEA/NO ([1]; 10 μM test substance): 42.5 n-fold | Stimulation (n-fold) of sGC, +0.1 μM DEA/NO ([1]; 0.001 μM test substance): 50.3 n-fold | Stimulation (n-fold) of sGC, +0.1 μM DEA/NO ([1]; 0.01 μM test substance): 53.4 n-fold | Stimulation (n-fold) of sGC, +0.1 μM DEA/NO ([1]; 0.1 μM test substance): 66.5 n-fold | Stimulation (n-fold) of sGC, +0.1 μM DEA/NO ([1]; 1 μM test substance): 75.1 n-fold | Stimulation (n-fold) of sGC, +0.1 μM DEA/NO ([1]; 10 μM test substance): 81.5 n-fold | Stimulation (n-fold) of sGC, +10 μM ODQ ([1]; 0.01 μM test substance): 12.7 n-fold | Stimulation (n-fold) of sGC, +10 μM ODQ ([1]; 0.1 μM test substance): 66.3 n-fold | Stimulation (n-fold) of sGC, +10 μM ODQ ([1]; 1 μM test substance): 107.4 n-fold | Stimulation (n-fold) of sGC, +10 μM ODQ ([1]; 10 μM test substance): 105.5 n-fold | Stimulation (n-fold) of sGC, Basal ([1]; 0.001 μM test substance): 1.4 n-fold | Stimulation (n-fold) of sGC, Basal ([1]; 0.01 μM test substance): 3.1 n-fold | Stimulation (n-fold) of sGC, Basal ([1]; 0.1 μM test substance): 15.5 n-fold | Stimulation (n-fold) of sGC, Basal ([1]; 1 μM test substance): 25.4 n-fold | Stimulation (n-fold) of sGC, Basal ([1]; 10 μM test substance): 33.0 n-fold | Synergism with the NO donor DEA/NO on sGC stimulation ([1]; combination with DEA/NO): no synergistic effect | Stimulation (n-fold) of heme-free sGC, Basal ([2]; 0.001 μM test substance): 3.7 n-fold | Stimulation (n-fold) of heme-free sGC, Basal ([2]; 0.01 μM test substance): 24.0 n-fold | Stimulation (n-fold) of heme-free sGC, Basal ([2]; 0.1 μM test substance): 98.1 n-fold | Stimulation (n-fold) of heme-free sGC, Basal ([2]; 1 μM test substance): 132.6 n-fold | Stimulation (n-fold) of heme-free sGC, Basal ([2]; 10 μM test substance): 137.9 n-fold
Compound: O=C(O)c1ccc(CCC(/C=C/c2ccccc2OCc2ccc(-c3ccc(C(F)(F)F)cc3)cc2)Cc2ccc(-c3noc(=O)[nH]3)cc2)cc1 (single isomer, unassigned) [Example 55, E-4-{3-[4-(5-Oxo-4,5-dihydro-[1,2,4]oxadiazol-3-yl)benzyl]-5-[2-(4′-trifluoromethylbiphenyl-4-ylmethoxy)phenyl]pent-4-enyl}benzoic acid]
